Experimental data as given in article PMC3681492, “Identification and Characterization of a Novel Chemotype MEK Inhibitor Able to Alter the Phosphorylation State of MEK1/2” (Oncotarget, 2012).

Tests used:
Raf kinase = Raf kinase activity, phosphorylation of MBP; conditions: for phosphorylation of the Raf kinase substrate MBP: at concentrations below 10 μM
HT-29 cells [1] = assay: Growth inhibition of HT-29 cells by [3H]-TdR incorporation; assay type: cell-based; conditions: Homo sapiens, [3H]-TdR incorporation during last 6 h of 3-day culture, read-out: growth inhibitory activity (IC50)
Description: HT-29 cells were cultured in McCoy's 5a medium supplemented with 10% (v/v) fetal bovine serum and antibiotics. ACHN and HEK293T cells were maintained in Dulbecco's modified Eagle's medium supplemented with 10% (v/v) fetal bovine serum and antibiotics in a humidified CO2 incubator. The growth inhibitory activities of compounds toward HT-29 cells were determined by [^3H]-TdR incorporation for the last 6 h of a 3-day culture period. […] The lysed cells were then homogenized by 20 strokes of a loose-fitting Dounce homogenizer and centrifuged for 6 min at 4,300×g to separate the nuclei from the cytoplasmic fraction. The cytoplasmic fraction was ultracentrifuged for 1 h at 150,000×g and the supernatant was dialyzed against a buffer containing 20 mM HEPES (pH 7.9), 20% (v/v) glycerol, 0.1 M KCl, 0.2 mM EDTA, 0.5 mM PMSF and 0.5 mM DTT for 5 h at 4°C. After centrifugation for 20 min at 15,000×g, the supernatant was collected as the cytosolic fraction.

MEK1/2 = assay: Competitive pull-down with JTP-74100-conjugated resin from HT-29 cytosolic fraction; assay type: binding, human; conditions: 46-kDa band on SDS-PAGE
[2] = cited from earlier work
ACHN cells = assay: Western blot of MEK and ERK phosphorylation in ACHN cells; assay type: cell-based, human; conditions: ACHN cells (K-Ras mutated, B-Raf unmutated), 24 h
Description: (§1) Cultured cells were treated with various compounds and then lysed in lysis buffer (50 mM Tris-HCl pH 7.4, 150 mM NaCl, 1 mM EGTA, 1 mM Na3Vo4, 1% Triton X-100 and EDTA-free protease inhibitor cocktail). The cell lysates were collected and centrifuged, and the supernatants were subjected to SDS-PAGE. After the electrophoresis, the proteins were transferred onto PVDF membranes at 1 mA/cm^2 for 1 h. The membranes were incubated in blocking solution (Blockace; Nacalai Tesque, Kyoto, Japan) and washed with PBS containing 0.1% Tween 20 (PBS/T). The membranes were then incubated with the primary antibody, washed three times with PBS/T and incubated with the secondary antibody. After washing with PBS/T, the membranes were incubated with ECL-Plus or ECL-Advanced western blot reagents (GE Healthcare, Little Chalfont, Buckinghamshire, UK) for 5 min, exposed to ECL Hyperfilm and visualized using a LAS3000 imager (Fujifilm).

B-Raf = B-Raf (Homo sapiens, UniProt P15056, V600E); assay: biochemical
B-Raf, sequence (P15056 whole entry V600E): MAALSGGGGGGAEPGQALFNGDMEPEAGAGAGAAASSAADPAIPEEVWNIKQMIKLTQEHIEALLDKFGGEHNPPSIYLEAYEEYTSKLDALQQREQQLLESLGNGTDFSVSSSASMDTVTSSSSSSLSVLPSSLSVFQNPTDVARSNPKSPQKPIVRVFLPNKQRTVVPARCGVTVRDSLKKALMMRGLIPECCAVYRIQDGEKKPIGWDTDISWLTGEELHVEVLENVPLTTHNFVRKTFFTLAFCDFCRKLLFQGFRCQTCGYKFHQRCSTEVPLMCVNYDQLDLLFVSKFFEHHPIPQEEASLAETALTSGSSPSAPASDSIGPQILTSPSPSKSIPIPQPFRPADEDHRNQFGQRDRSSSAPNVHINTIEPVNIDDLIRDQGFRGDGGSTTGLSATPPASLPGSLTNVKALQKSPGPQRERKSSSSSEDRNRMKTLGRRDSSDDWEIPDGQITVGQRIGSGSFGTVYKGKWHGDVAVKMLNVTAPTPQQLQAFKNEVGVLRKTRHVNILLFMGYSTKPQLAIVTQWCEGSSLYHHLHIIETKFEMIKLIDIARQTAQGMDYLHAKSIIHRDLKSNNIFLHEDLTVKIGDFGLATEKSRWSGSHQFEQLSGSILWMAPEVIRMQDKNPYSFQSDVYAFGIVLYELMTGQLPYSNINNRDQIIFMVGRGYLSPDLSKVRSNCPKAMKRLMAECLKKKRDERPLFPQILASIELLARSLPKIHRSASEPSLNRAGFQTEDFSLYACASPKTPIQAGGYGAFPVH

various cancer cells = assay: Western blot of MEK and ERK phosphorylation in various cancer cell lines; assay type: cell-based; conditions: 2 h
Description: as §1

p-MEK1 = biological target: T1, p-MEK1 (Homo sapiens, UniProt Q02750); assay: Kinetic (double-reciprocal) analysis of MEK inhibition in the MEK-ERK reaction; assay type: biochemical; conditions: p-MEK-ATP complex, double-reciprocal plots vs ATP
T1 construct: purchased Upstate Technology (Waltham, MA)

c-Raf = c-Raf (Homo sapiens, UniProt P04049); assay: Raf/MBP kinase assay, c-Raf
c-Raf, sequence (P04049 306-648): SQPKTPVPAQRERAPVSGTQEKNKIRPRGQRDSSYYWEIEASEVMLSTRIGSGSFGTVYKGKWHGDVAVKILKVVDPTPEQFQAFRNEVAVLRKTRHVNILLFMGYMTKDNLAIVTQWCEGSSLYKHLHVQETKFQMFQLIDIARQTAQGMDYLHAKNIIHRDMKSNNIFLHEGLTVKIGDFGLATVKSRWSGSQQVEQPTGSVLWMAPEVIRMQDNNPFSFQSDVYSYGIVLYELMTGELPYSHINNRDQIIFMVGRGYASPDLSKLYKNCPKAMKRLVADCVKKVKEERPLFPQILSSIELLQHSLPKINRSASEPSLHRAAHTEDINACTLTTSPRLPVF

[3] = system: HT-29 cells and ACHN cells; assay: Western blot of downstream signaling molecules (c-Myc, cyclin D1, p15INK4b, p27KIP1); assay type: cell-based, human; conditions: 24 h treatment
Description: as §1
Supplemental Table: Identif ied Peptide Sequences of 46 kDa Proteins.
ACCESSION Start - End Obsrved Mr(expt) Mr(calc) Sequence
Supp lemental Figure: Alterations of downstream signaling molecules in cancer cells by
(A, B) HT-29 cells (A) and ACHN cells (B) were treated with the
indicated concentrations of each compound for 24 h,same as the experiment of F ig u re 3A. And
the cell lysates were analyzed by western blotting using antibodies specific to c-M yc (Upstate […]

Inactive u-MEK (K97R) = Inactive u-MEK (K97R) (Homo sapiens, UniProt Q02750, K97R); assay: Temperature-dependent CD analysis of u-MEK; conditions: 10 μM compound, 3 μM u-MEK; u-MEK alone 50.2 °C
[4] = set-up: method as in PMID 22805291; conditions: orally administered, cancer patients, phase I study; cited from earlier work
HT-29 cells [5] = assay: Western blot of MEK and ERK phosphorylation in HT-29 cells; assay type: cell-based, human; conditions: for MEK phosphorylation status after pulse treatment: 2 h treatment then washout

CNC(=O)c1cc(Oc2ccc(NC(=O)Nc3ccc(Cl)c(C(F)(F)F)c3)cc2)ccn1 [BAY 43-9006]
concentration that inhibited Raf kinase activity (Raf kinase; same conditions as Raf/MBP assay, data not shown): 0.1 µM

COc1ccccc1Nc1cc(=O)n(C)c2c1c(=O)n(-c1ccccc1)c(=O)n2-c1ccccc1 [JTP-65634]
IC50 (HT-29 cells [1]): > 10000 nM
concentration needed to clearly compete with JTP-74100-immobilized resin for binding to MEK (MEK1/2): > 100 µM

Cn1c(=O)cc(Nc2ccc(I)cc2F)c2c(=O)n(C3CC3)c(=O)n(-c3cccc(NS(C)(=O)=O)c3)c21 [JTP-70945]
IC50 (HT-29 cells [1]): 0.39 nM
concentration needed to clearly compete with JTP-74100-immobilized resin for binding to MEK (MEK1/2): above 10 μM

CC(=O)Nc1cccc(-n2c(=O)n(C3CC3)c(=O)c3c(Nc4ccc(I)cc4F)n(C)c(=O)c(C)c32)c1 [JTP-74057]
IC50 (HT-29 cells [1]): 0.57 nM
ERK phosphorylation in grafted cancer tissues ([2]; animals, after oral administration): inhibited ERK phosphorylation
half-life in the blood ([2]; in vivo, po): long half-life
accumulation of p-MEK (ACHN cells): did not significantly, or slightly if any, induce accumulation of p-MEK
IC50 (B-Raf): > 10 µM
p-MEK levels in HCT-15, LS-174T, T84 and LoVo cells (various cancer cells; 100 nM): did not decrease or decrease to a lesser extent
p-MEK levels in HT-29, COLO-205, HCT-116, SW480 and SW620 cells (various cancer cells; 100 nM (HT-29 10 nM)): decreased
ERK phosphorylation in various cancer cell lines (various cancer cells; 100 nM (HT-29 10 nM), 10 cell lines): efficiently inhibited in almost all cell lines, except for COLO-320DM
Ki' (MEK/ATP vs. compound) (p-MEK1): 290 ± 80 nM
phosphorylation of the Raf kinase substrate MBP (Raf kinase): not inhibited
IC50 (c-Raf): > 10 µM
concentration at which accumulation of p15INK4b and p27KIP1 and decrease of c-Myc and Cyclin D1 were observed [3]: 1 nM
Tm of u-MEK with compound (CD) (Inactive u-MEK (K97R)): 57.5 °C
t1/2 [4]: about 4 days
time at which p-MEK level was decreased (HT-29 cells [5]; 10 nM): ≤ 15 min
time at which p-MEK was almost ablated (HT-29 cells [5]; 10 nM): 30 min
MEK phosphorylation status after pulse treatment (HT-29 cells [5]): disappearance of p-MEK was sustained for a considerable period
ERK phosphorylation (HT-29 cells [5]; 24 h): inhibited ERK phosphorylation
p-MEK level (HT-29 cells [5]; 24 h): decreased the p-MEK level

O=C(NOC[C@H](O)CO)c1ccc(F)c(F)c1Nc1ccc(I)cc1F [PD0325901, reference compound]
IC50 (HT-29 cells [1]): 3.4 nM
accumulation of p-MEK (ACHN cells): induced significant accumulation of p-MEK
phosphorylation of the Raf kinase substrate MBP (Raf kinase): not inhibited
concentration at which accumulation of p15INK4b and p27KIP1 and decrease of c-Myc and Cyclin D1 were observed [3]: 10 nM
time for p-ERK level to return to nearly normal level after removal (HT-29 cells [5]; 100 nM for 2 h then washout): ≤ 1 h
MEK phosphorylation status after pulse treatment (HT-29 cells [5]): did not affect the MEK phosphorylation status
ERK phosphorylation (HT-29 cells [5]; 24 h): inhibited ERK phosphorylation

N#CC(=C(/N)Sc1ccccc1N)/C(C#N)=C(\N)Sc1ccccc1N [U0126, reference compound]
concentration needed to clearly compete with JTP-74100-immobilized resin for binding to MEK (MEK1/2): 100 µM

CCCCC(=O)NCCC(=O)Nc1cccc(-n2c(=O)n(C3CC3)c(=O)c3c(Nc4ccccc4F)n(C)c(=O)c(C)c32)c1 [pentanoyl JTP-74099]
IC50 (HT-29 cells [1]): 840 nM

CCCCC(=O)NCCC(=O)Nc1cccc(-n2c(=O)n(C3CC3)c(=O)c3c(Nc4ccc(I)cc4F)n(C)c(=O)c(C)c32)c1 [pentanoyl JTP-74100]
IC50 (HT-29 cells [1]): 2.1 nM
